Data on 16 compounds can be found in ChEMBL document CHEMBL3232781, “Fluorinated benzophenone derivatives: balanced multipotent agents for Alzheimer's disease” (Eur J Med Chem, 2014).

Series [1] concerns the target Beta-secretase 1 (Homo sapiens) (UniProt P56817). In words: Inhibition of human recombinant BACE-1 using M-2420 as substrate at 3 uM incubated for 1 hr prior to substrate addition measured after 15 mins by FRET assay relative to control.
For series [2], the target named is Acetylcholinesterase (Homo sapiens, UniProt P22303). In words: Inhibition of human recombinant AChE using acetylthiocholine iodide as substrate preincubated for 20 mins by Ellman's method. On the technique in general: Ellman's reagent forms a yellow product with free thiols.
Series [3] deals with SH-SY5Y. Kind of series: Antioxidant activity in human SH-SY5Y cells assessed as inhibition of amyloid beta (25 to 35)-induced intracellular ROS formation at 500 uM after 3 hrs by dihydroethidium-based fluorescence microscopic analysis relative to control. In kind it is functional.
Series [4] relates to SH-SY5Y. Kind of series: Antioxidant activity in human SH-SY5Y cells assessed as inhibition of t-BuOOH-induced intracellular ROS formation at 500 uM after 30 mins by dihydroethidium-based spectrofluorometric analysis relative to control. Type of series: functional. The following applies: 0.5 h.
Series [5] relates to SH-SY5Y. Kind of series: Antioxidant activity in human SH-SY5Y cells assessed as inhibition of amyloid beta (25 to 35)-induced intracellular ROS formation at 3 to 5 uM after 3 hrs by dihydroethidium-based fluorescence microscopic analysis relative to control. In kind it is functional.
In series [6] the test system is SH-SY5Y. Kind of series: Neurotoxicity in human SH-SY5Y cells assessed as decrease in cell viability at 10 to 50 uM after 24 hrs by MTT assay. In kind it is toxicity, cell-based. For orientation: Formazan colour is commonly taken as a measure of viable cells.
Series [7] relates to SH-SY5Y. Kind of series: Antioxidant activity in human SH-SY5Y cells assessed as inhibition of t-BuOOH-induced intracellular ROS formation at 3 to 5 uM after 30 mins by dihydroethidium-based spectrofluorometric analysis. Type of series: functional, cell-based.
The target in series [8] is Beta-secretase 1 (Homo sapiens) (UniProt P56817). In words: Inhibition of human recombinant BACE-1 using M-2420 as substrate up to 4 uM incubated for 1 hr prior to substrate addition measured after 15 mins by FRET assay.
Series [9] has the same target. Kind of series: Inhibition of human recombinant BACE-1 using M-2420 as substrate at 3.38 uM incubated for 1 hr prior to substrate addition measured after 15 mins by FRET assay relative to control.
Series [10] shares this target. In words: Inhibition of human recombinant BACE-1 using M-2420 as substrate at 5 uM incubated for 1 hr prior to substrate addition measured after 15 mins by FRET assay relative to control.

The structures appear in SMILES notation. The source made the active and inactive calls. No cut-off for these calls is given here.

Chain of Beta-secretase 1 (Homo sapiens) (P56817 whole entry): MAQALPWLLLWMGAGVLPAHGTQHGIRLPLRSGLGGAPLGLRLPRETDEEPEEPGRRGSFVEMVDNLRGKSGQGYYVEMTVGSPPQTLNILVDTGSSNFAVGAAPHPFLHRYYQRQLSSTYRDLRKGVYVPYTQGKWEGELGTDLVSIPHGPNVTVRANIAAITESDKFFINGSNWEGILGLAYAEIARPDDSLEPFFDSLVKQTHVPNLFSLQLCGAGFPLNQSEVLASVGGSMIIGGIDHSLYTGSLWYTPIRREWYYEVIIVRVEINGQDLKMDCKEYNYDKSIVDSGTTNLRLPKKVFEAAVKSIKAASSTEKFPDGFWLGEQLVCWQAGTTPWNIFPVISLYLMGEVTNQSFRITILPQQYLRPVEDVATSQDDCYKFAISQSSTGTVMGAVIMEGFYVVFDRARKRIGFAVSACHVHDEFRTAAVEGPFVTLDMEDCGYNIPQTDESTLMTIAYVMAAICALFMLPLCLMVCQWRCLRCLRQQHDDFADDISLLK
Chain of Acetylcholinesterase (P22303 whole entry): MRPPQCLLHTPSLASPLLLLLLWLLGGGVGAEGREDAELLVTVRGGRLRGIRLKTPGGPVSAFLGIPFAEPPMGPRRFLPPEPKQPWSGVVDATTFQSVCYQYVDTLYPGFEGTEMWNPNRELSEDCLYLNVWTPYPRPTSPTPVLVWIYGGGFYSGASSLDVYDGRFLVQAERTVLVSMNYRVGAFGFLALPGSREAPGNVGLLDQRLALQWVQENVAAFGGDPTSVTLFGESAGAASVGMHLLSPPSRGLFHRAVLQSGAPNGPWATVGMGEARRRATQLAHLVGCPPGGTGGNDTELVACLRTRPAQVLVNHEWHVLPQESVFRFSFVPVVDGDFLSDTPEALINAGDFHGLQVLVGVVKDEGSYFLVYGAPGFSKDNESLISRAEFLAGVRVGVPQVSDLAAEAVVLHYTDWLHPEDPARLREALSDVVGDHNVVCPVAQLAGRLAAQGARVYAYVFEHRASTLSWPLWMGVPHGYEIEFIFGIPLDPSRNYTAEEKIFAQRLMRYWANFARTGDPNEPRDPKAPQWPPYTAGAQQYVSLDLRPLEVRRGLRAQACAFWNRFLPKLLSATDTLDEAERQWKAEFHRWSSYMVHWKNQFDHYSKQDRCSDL

By inhibition is commonly meant the relative decrease from the control value, in per cent. As for `O=C(c1ccc(CN2CCC(O)CC2)cc1)c1ccc(O)c(F)c1`, the inhibition in series [1] is 32.8%. Further, the inhibition result in [2] is “inactive”.
On the same counts, the results for `Cc1ccc(C(=O)c2ccc(O)c(F)c2)cc1` are 35.4% and “inactive”.
Regarding `CC(=O)N[C@@H](CS)C(=O)O` [ACETYLCYSTEINE], the inhibition at 500 µM in series [3] and in series [4] was 35% each time.
Broadly, the IC50 is the concentration at which inhibition is half-maximal. Turning to `CN(Cc1ccccc1)Cc1ccc(C(=O)c2ccc(O)c(F)c2)cc1`, the inhibition in series [1] is 40.8%. For the same compound, the IC50 in [2] was determined as 3660 nM. Also, in [5], the Imax came to 30%. In addition, the Activity entry in series [6] is on record as “Toxic”. For the same compound, the inhibition entry in series [7] is “Active”.
Take `O=C(c1ccc(CN2CCN(c3ccccc3)CC2)cc1)c1ccc(O)c(F)c1`: the inhibition entry in series [2] and in [8] was “inactive” in each case.
Take `COc1ccc(C(=O)c2ccc(CN(C)Cc3ccccc3)cc2)cc1F`: the inhibition result in [5] and in [7] was “inactive” each time. Moreover, the Activity entry in series [6] is given as “Non-toxic”. Besides, the inhibition in series [9] was found to be 10.7%.
In the case of `CN(Cc1ccc(C(=O)c2ccc(O)c(F)c2)cc1)Cc1cccc(O)c1`, the inhibition entry in series [2] and in series [8] was “inactive” throughout.
`CN(Cc1ccccc1)Cc1ccc(C(=O)c2ccc(O)cc2)cc1`: the inhibition result in [8] is “inactive”.
For the compound `O=C(c1ccc(CN2CCC(CCO)CC2)cc1)c1ccc(O)c(F)c1`, in [1], the inhibition was found to be 58.7%. The IC50 in [2] is 2320 nM. In addition, the Imax in series [5] is given as 30%. In [6], the Activity entry is listed as “Non-toxic”. In series [7], the inhibition entry is “Active”.
As to `COc1ccc(C(=O)c2ccc(CN(C)Cc3ccccc3)cc2)cc1OC`, the inhibition in [10] was found to be 20%.
In the case of `CN(Cc1ccc(C(=O)c2ccc(O)c(F)c2)cc1)C1CCCCC1`, in [1], the inhibition turned out to be 36.2%. Besides, in [2], the inhibition entry was “inactive”.
`CN(CCO)Cc1ccc(C(=O)c2ccc(O)c(F)c2)cc1`: the inhibition in [1] turned out to be 46.7%. Besides, the inhibition entry in series [2] is “inactive”.
On to `COc1ccc(C(=O)c2ccc(CN(C)Cc3ccccc3)cc2)cc1`, for which the inhibition result in series [8] is “inactive”.
For the compound `O=C(c1ccc(CN2CCN(Cc3ccccc3)CC2)cc1)c1ccc(O)c(F)c1`, the inhibition result in [2] and in series [8] was “inactive” throughout.
`CN1CCN(Cc2ccc(C(=O)c3ccc(O)c(F)c3)cc2)CC1`: the inhibition entry in [2] and in [8] was “inactive” in each case.
Turning to `CN(C)CCN(C)Cc1ccc(C(=O)c2ccc(O)c(F)c2)cc1`, in series [1], the inhibition was found to be 13.5%. Moreover, the inhibition result in series [2] is “inactive”.
